Source: ChEMBL document CHEMBL4219254, “Harnessing biosynthesis and quantitative NMR for late stage functionalization of lead molecules: Application to the M1 positive allosteric modulator (PAM) program” (Bioorg Med Chem Lett, 2018)

Experiments:
[1] = target: T1, Muscarinic acetylcholine receptor M1 (Homo sapiens, UniProt P11229); assay: Positive allosteric modulation of human muscarinic M1 receptor expressed in CHO cells assessed as increase in ACh-induced intracellular calcium level preincubated for 10 mins followed by ACh addition measured every 2 secs for 80 secs by Fluo-4 dye-based FLIPR assay; assay type: functional, cell-based
T1 sequence (P11229 whole entry): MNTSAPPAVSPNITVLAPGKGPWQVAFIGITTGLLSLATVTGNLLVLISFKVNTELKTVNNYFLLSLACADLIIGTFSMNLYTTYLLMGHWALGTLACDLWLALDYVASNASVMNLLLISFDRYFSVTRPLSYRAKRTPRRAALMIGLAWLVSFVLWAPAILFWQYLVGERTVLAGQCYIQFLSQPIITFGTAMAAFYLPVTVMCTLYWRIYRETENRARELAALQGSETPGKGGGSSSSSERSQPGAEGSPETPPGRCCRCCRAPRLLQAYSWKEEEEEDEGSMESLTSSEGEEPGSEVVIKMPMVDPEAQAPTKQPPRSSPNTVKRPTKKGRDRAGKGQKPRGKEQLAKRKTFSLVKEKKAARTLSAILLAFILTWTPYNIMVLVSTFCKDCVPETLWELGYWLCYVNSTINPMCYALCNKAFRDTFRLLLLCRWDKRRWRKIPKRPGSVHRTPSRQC

[2] = Drug level in guinea pig liver microsomes treated with 1-(4-(1H-pyrazol-1-yl)benzyl)-N-((1S,2S)-2-hydroxycyclohexyl)-1H-pyrrolo[3,2-b]pyridine-3-carboxamide at 20 uM after 75 mins by UHPLC-UV-HRMS analysis; assay type: ADME, Cavia porcellus, microsome; details: 1.25 h
[3] = Drug level in dexamethasone-induced rat liver microsomes treated with N-((3R,4S)-3-hydroxytetrahydro-2H-pyran-4-yl)-5-methyl-4-(4-(thiazol-4-yl)benzyl)picolinamide at 20 uM after 60 mins by UHPLC-UV-HRMS analysis; assay type: ADME, microsome; details: 1 h
[4] = Drug metabolism in dexamethasone-induced rat liver microsomes assessed as formation of 4-(hydroxy(4-(thiazol-4-yl)phenyl)methyl)-N-((3R,4S)-3-hydroxytetrahydro-2H-pyran-4-yl)-5-methylpicolinamide at 20 uM after 60 mins by UHPLC-UV-HRMS analysis; assay type: ADME, microsome; details: 1 h
[5] = Drug metabolism in dexamethasone-induced rat liver microsomes assessed as formation of N-((3R,4S)-2,3-dihydroxytetrahydro-2H-pyran-4-yl)-5-methyl-4-(4-(thiazol-4-yl)benzyl)picolinamide at 20 uM after 60 mins by UHPLC-UV-HRMS analysis; assay type: ADME, microsome; details: 1 h
[6] = Drug level in rat liver microsomes treated with N-((3R,4S)-3-hydroxytetrahydro-2H-pyran-4-yl)-5-methyl-1-(4-(1-methyl-1H-pyrazol-3-yl)benzyl)-1H-pyrrolo[3,2-b]pyridine-3-carboxamide at 20 uM after 70 mins by UHPLC-UV-HRMS analysis; assay type: ADME, microsome
[7] = Permeability in RRCK cells; assay type: ADME, cell-based, Canis lupus familiaris, MDCKII-LE; details: dog, MDCK; read-out: permeability
[8] = Drug level in rabbit liver microsomes treated with 5-(4-(1H-pyrazol-1-yl)benzyl)-N-((1S,2S)-2-hydroxycyclohexyl)-1,6-dimethyl-2-oxo-1,2-dihydropyridine-3-carboxamide at 20 uM after 60 mins by UHPLC-UV-HRMS analysis; assay type: ADME, Oryctolagus cuniculus, microsome
[9] = Drug level in rabbit liver microsomes treated with 4-(4-(1H-pyrazol-1-yl)benzyl)-N-((3R,4S)-3-hydroxytetrahydro-2H-pyran-4-yl)-5-methylpicolinamide at 20 uM after 60 mins by UHPLC-UV-HRMS analysis; assay type: ADME, Oryctolagus cuniculus, microsome
[10] = Drug metabolism in rabbit liver microsomes assessed as formation of 4-((4-(1H-pyrazol-1-yl)phenyl)(hydroxy)methyl)-N-((3R,4S)-3-hydroxytetrahydro-2H-pyran-4-yl)-5-methylpicolinamide at 20 uM after 60 mins by UHPLC-UV-HRMS analysis; assay type: ADME, Oryctolagus cuniculus, microsome
[11] = Drug metabolism in rabbit liver microsomes assessed as formation of 4-(4-(1H-pyrazol-1-yl)benzyl)-N-((4S,5R)-2,5-dihydroxytetrahydro-2H-pyran-4-yl)-5-methylpicolinamide at 20 uM after 60 mins by UHPLC-UV-HRMS analysis; assay type: ADME, Oryctolagus cuniculus, microsome
[12] = Drug metabolism in rabbit liver microsomes assessed as formation of 4-(4-(1H-pyrazol-1-yl)benzyl)-N-((3R,4S)-2,3-dihydroxytetrahydro-2H-pyran-4-yl)-5-methylpicolinamide at 20 uM after 60 mins by UHPLC-UV-HRMS analysis; assay type: ADME, Oryctolagus cuniculus, microsome
[13] = Drug metabolism in rabbit liver microsomes assessed as formation of 4-(4-(4-hydroxy-1H-pyrazol-1-yl)benzyl)-N-((3R,4S)-3-hydroxytetrahydro-2H-pyran-4-yl)-5-methylpicolinamide at 20 uM after 60 mins by UHPLC-UV-HRMS analysis; assay type: ADME, Oryctolagus cuniculus, microsome
[14] = Drug metabolism in rabbit liver microsomes assessed as formation of 4-(4-(1H-pyrazol-1-yl)benzyl)-5-(hydroxymethyl)-N-((3R,4S)-3-hydroxytetrahydro-2H-pyran-4-yl)picolinamide at 20 uM after 60 mins by UHPLC-UV-HRMS analysis; assay type: ADME, Oryctolagus cuniculus, microsome
[15] = Drug metabolism in rabbit liver microsomes assessed as formation of 4-(4-(1H-pyrazol-1-yl)benzyl)-5-methyl-N-((2R,3S)-1,2,5-trihydroxypentan-3-yl)picolinamide at 20 uM after 60 mins by UHPLC-UV-HRMS analysis; assay type: ADME, Oryctolagus cuniculus, microsome
[16] = Drug level in hamster liver microsomes treated with N-((3R,4S)-3-hydroxytetrahydro-2H-pyran-4-yl)-1-(4-(1-methyl-1H-pyrazol-3-yl)benzyl)-1H-pyrrolo[3,2-b]pyridine-3-carboxamide at 20 uM by UHPLC-UV-HRMS analysis; assay type: ADME, microsome; details: cricetinae
[17] = Intrinsic clearance in human liver microsomes; assay type: ADME, microsome; details: read-out: CLH
MDR1 = assay: Efflux ratio of permeability in MDCK cells expressing MDR1; assay type: ADME, cell-based, Canis lupus familiaris; details: dog
[18] = Drug metabolism in rabbit liver microsomes assessed as formation of 5-(4-(1H-pyrazol-1-yl)benzyl)-N-((1S,2S)-2-hydroxycyclohexyl)-6-(hydroxymethyl)-1-methyl-2-oxo-1,2-dihydropyridine-3-carboxamide at 20 uM after 60 mins by UHPLC-UV-HRMS analysis; assay type: ADME, Oryctolagus cuniculus, microsome
[19] = Drug metabolism in rabbit liver microsomes assessed as formation of 5-(4-(1H-pyrazol-1-yl)benzyl)-N-((1S,2S)-2,5-dihydroxycyclohexyl)-6-methyl-2-oxo-1,2-dihydropyridine-3-carboxamide at 20 uM after 60 mins by UHPLC-UV-HRMS analysis; assay type: ADME, Oryctolagus cuniculus, microsome
[20] = Drug metabolism in rabbit liver microsomes assessed as formation of 5-(4-(1H-pyrazol-1-yl)benzyl)-N-((1S,2S)-2,4-dihydroxycyclohexyl)-6-(hydroxymethyl)-1-methyl-2-oxo-1,2-dihydropyridine-3-carboxamide at 20 uM after 60 mins by UHPLC-UV-HRMS analysis; assay type: ADME, Oryctolagus cuniculus, microsome
[21] = Drug metabolism in rabbit liver microsomes assessed as formation of 5-(4-(1H-pyrazol-1-yl)benzyl)-N-((1S,2S)-2,4-dihydroxycyclohexyl)-1,6-dimethyl-2-oxo-1,2-dihydropyridine-3-carboxamide at 20 uM after 60 mins by UHPLC-UV-HRMS analysis; assay type: ADME, Oryctolagus cuniculus, microsome

## O=C(N[C@H]1CC(O)CC[C@@H]1O)c1cn(Cc2ccc(-n3cccn3)cc2)c2cccnc12 (some centres not stated)
[1]
  EC50: > 72 nM
[2]
  Drug metabolism: Metabolite_Detected

## O=C(N[C@H]1CCC(O)C[C@@H]1O)c1cn(Cc2ccc(-n3cccn3)cc2)c2cccnc12 (stereo in doubt; 20a)
[1]
  EC50: 167 nM
[2]
  Drug metabolism: Metabolite_Detected

## Cc1cnc(C(=O)N[C@H]2CCOC(O)[C@@H]2O)cc1Cc1ccc(-c2cscn2)cc1 (some centres not stated)
[3]
  Drug metabolism: Metabolite_Detected
[1]
  EC50: 162 nM

## Cc1cnc(C(=O)N[C@H]2CCOC[C@@H]2O)cc1Cc1ccc(-c2cscn2)cc1
[4]
  Drug metabolism: Metabolite_Detected
[5]
  Drug metabolism: Metabolite_Detected

## Cn1ccc(-c2ccc(Cn3cc(C(=O)N[C@H]4CCOC[C@@H]4O)c4nc(C=O)ccc43)cc2)n1
[6]
  Drug metabolism: Metabolite_Detected
[1]
  EC50: 184 nM

## Cc1ccc2c(n1)c(C(=O)N[C@H]1CCOC[C@@H]1O)cn2Cc1ccc(-c2ccn(C)n2)cc1
[7]
  Papp: 21 ×10⁻⁶ cm/s

## O=C(N[C@H]1CCC(O)C[C@@H]1O)c1cn(Cc2ccc(-n3cccn3)cc2)c2cccnc12 (stereo in doubt; 20b)
[1]
  EC50: 16 nM

## Cc1c(Cc2ccc(-n3cccn3)cc2)cc(C(=O)N[C@H]2CCC(O)C[C@@H]2O)c(=O)n1C (some centres not stated)
[1]
  EC50: 63 nM
[8]
  Drug metabolism: Metabolite_Detected

## O=C(N[C@H]1CCCC[C@@H]1O)c1cn(Cc2ccc([N+]3([O-])C=CC=N3)cc2)c2cccnc12 (some centres not stated)
[1]
  EC50: 34 nM
[2]
  Drug metabolism: Metabolite_Detected

## Cc1cnc(C(=O)N[C@H]2CC(O)OC[C@@H]2O)cc1Cc1ccc(-n2cccn2)cc1 (some centres not stated)
[9]
  Drug metabolism: Metabolite_Detected
[1]
  EC50: > 3000 nM

## Cc1cnc(C(=O)N[C@H]2CCOC[C@@H]2O)cc1C(O)c1ccc(-n2cccn2)cc1 (stereo in doubt; 11b)
[1]; cho
  EC50: > 1000 nM

## Cc1cnc(C(=O)N[C@H]2CCOC[C@@H]2O)cc1C(O)c1ccc(-c2cscn2)cc1 (stereo in doubt; 14a)
[3]
  Drug metabolism: Metabolite_Detected
[1]
  EC50: > 4150 nM

## Cc1cnc(C(=O)N[C@H]2CCOC[C@@H]2O)cc1C(O)c1ccc(-c2cscn2)cc1 (stereo in doubt; 14b)
[1]
  EC50: > 1100 nM

## Cc1cnc(C(=O)N[C@H]2CCOC[C@@H]2O)cc1C(O)c1ccc(-n2cccn2)cc1 (stereo in doubt; 11a)
[9]
  Drug metabolism: Metabolite_Detected
[1]
  EC50: > 1000 nM

## Cc1cnc(C(=O)N[C@H]2CCOC[C@@H]2O)cc1Cc1ccc(-n2cccn2)cc1
[10]
  Drug metabolism: Metabolite_Detected
[11]
  Drug metabolism: Metabolite_Detected
[12]
  Drug metabolism: Metabolite_Detected
[13]
  Drug metabolism: Metabolite_Detected
[14]
  Drug metabolism: Metabolite_Detected
[15]
  Drug metabolism: Metabolite_Detected

## Cc1[nH]c(=O)c(C(=O)N[C@H]2CC(O)CC[C@@H]2O)cc1Cc1ccc(-n2cccn2)cc1 (some centres not stated)
[1]
  EC50: 12 nM
[8]
  Drug metabolism: Metabolite_Detected

## O=C(N[C@H]1CCCC[C@@H]1O)c1cn(Cc2ccc(-n3cccn3)cc2)c2cccnc12
[7]
  Papp: 16.2 ×10⁻⁶ cm/s

## Cn1c(CO)c(Cc2ccc(-n3cccn3)cc2)cc(C(=O)N[C@H]2CCCC[C@@H]2O)c1=O
[1]
  EC50: 40 nM
[8]
  Drug metabolism: Metabolite_Detected

## Cc1cnc(C(=O)N[C@@H](CCO)[C@@H](O)CO)cc1Cc1ccc(-n2cccn2)cc1
[9]
  Drug metabolism: Metabolite_Detected
[1]
  EC50: > 300 nM

## Cn1ccc(-c2ccc(Cn3cc(C(=O)N[C@H]4CCOC(O)[C@@H]4O)c4ncccc43)cc2)n1 (some centres not stated)
[1]
  EC50: > 257 nM
[16]
  Drug metabolism: Metabolite_Detected

## Cn1ccc(-c2ccc(Cn3cc(C(=O)N[C@H]4CCOC[C@@H]4O)c4nc(CO)ccc43)cc2)n1
[6]
  Drug metabolism: Metabolite_Detected
[1]
  EC50: 99 nM

## O=C(N[C@H]1CCOC[C@@H]1O)c1cc(Cc2ccc(-n3cccn3)cc2)c(CO)cn1
[9]
  Drug metabolism: Metabolite_Detected
[1]
  EC50: 338 nM
[17]
  CLint scaled: < 8 mL/min/kg
[7]
  Papp: 4.6 ×10⁻⁶ cm/s
MDR1
  efflux ratio: 15.9

## O=C(N[C@H]1CCOC[C@@H]1O)c1cn(Cc2ccc(-c3cc[nH]n3)cc2)c2cccnc12
[16]
  Drug metabolism: Metabolite_Detected

## Cn1ccc(-c2ccc(Cn3cc(C(=O)N[C@H]4CC(O)OC[C@@H]4O)c4ncccc43)cc2)n1 (some centres not stated)
[1]
  EC50: > 207 nM
[16]
  Drug metabolism: Metabolite_Detected

## O=C(N[C@H]1C(O)CCC[C@@H]1O)c1cn(Cc2ccc(-n3cccn3)cc2)c2cccnc12 (some centres not stated)
[1]
  EC50: > 249 nM
[2]
  Drug metabolism: Metabolite_Detected

## Cc1cnc(C(=O)N[C@H]2CCOC[C@@H]2O)cc1Cc1ccc(-n2cc(O)cn2)cc1
[9]
  Drug metabolism: Metabolite_Detected
[1]
  EC50: 70 nM

## Cn1c(CO)c(Cc2ccc(-n3cccn3)cc2)cc(C(=O)N[C@H]2CCC(O)C[C@@H]2O)c1=O (some centres not stated)
[1]
  EC50: 177 nM
[8]
  Drug metabolism: Metabolite_Detected

## Cc1cnc(C(=O)N[C@H]2CCOC(O)[C@@H]2O)cc1Cc1ccc(-n2cccn2)cc1 (some centres not stated)
[9]
  Drug metabolism: Metabolite_Detected
[1]
  EC50: 511 nM

## Cc1c(Cc2ccc(-n3cccn3)cc2)cc(C(=O)N[C@H]2CCCC[C@@H]2O)c(=O)n1C
[18]
  Drug metabolism: Metabolite_Detected
[19]
  Drug metabolism: Metabolite_Detected
[20]
  Drug metabolism: Metabolite_Detected
[21]
  Drug metabolism: Metabolite_Detected
MDR1
  efflux ratio: 2.7
